According to publication PMC12010950, “Discover the Power of Lithospermic Acid as Human Carbonic Anhydrase VA and Pancreatic Lipase Inhibitor Through In Silico and In Vitro Studies” (Archiv Der Pharmazie, 2025):
Several values for one entry are separate records, joined by “and”; a condition that tells them apart may be missing. Equal entries are not always repeated. Entries after “also recorded” stand apart in the source; their conditions may differ. Where two headings read alike, the source gives them in different places.

Experiments:
[1] = target: T1, PL (pancreatic lipase) from porcine pancreas (Sus scrofa, UniProt P00591); assay: Kinetics of PL inhibition (Lineweaver-Burk plots); format: biochemical
T1 sequence (P00591 1-450): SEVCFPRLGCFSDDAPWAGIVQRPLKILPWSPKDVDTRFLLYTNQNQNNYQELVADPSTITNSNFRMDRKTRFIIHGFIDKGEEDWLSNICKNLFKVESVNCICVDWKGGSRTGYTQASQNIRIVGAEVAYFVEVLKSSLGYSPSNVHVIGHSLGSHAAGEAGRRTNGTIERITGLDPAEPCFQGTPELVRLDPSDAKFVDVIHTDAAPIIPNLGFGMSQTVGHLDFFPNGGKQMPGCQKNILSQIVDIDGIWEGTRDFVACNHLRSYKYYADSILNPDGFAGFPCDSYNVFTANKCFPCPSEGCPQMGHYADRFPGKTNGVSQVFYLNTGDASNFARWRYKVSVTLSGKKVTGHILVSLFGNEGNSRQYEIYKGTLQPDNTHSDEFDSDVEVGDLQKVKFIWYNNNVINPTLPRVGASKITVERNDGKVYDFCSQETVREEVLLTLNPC
Method: The inhibition of PL by LTS0059529 on PL was also determined using Lineweaver–Burk graphs, which plot the reciprocal of initial velocity (v 0 ) against the reciprocal of substrate concentration.
The mode of inhibition of PL in the presence of LTS0059529 was determined by elaboration of UV‐vis spectroscopic data with Lineweaver–Burk plots. […] The competitive inhibition constants K i was calculated from the following equation. (2) v0=vmaxS/Km1+I/Ki+S, where ν 0 is the initial velocity in the absence and presence of the inhibitor, S and I are the concentrations of substrate and inhibitor, respectively; ν max is the maximum velocity, K m is the Michaelis–Menten constant. The replot of slopes (K m/ν max) from Lineweaver–Burk plot versus the inhibitor concentration afforded K i value as well.

hCA I = target: T2, hCA I (Homo sapiens, UniProt P00915); assay: Stopped-flow CO2 hydrase assay; format: biochemical; details: mean from 3 assays, read-out: K i hCA I
T2 construct: made in house
Method: (§1) An Applied Photophysics stopped‐flow instrument was used to assay the CA‐catalyzed CO2 hydration activity. […] The uncatalyzed rates were determined in the same manner and subtracted from the total observed rates. Stock solutions of the inhibitor (0.1 mM) were prepared in distilled−deionized water, and dilutions up to 0.01 nM were done thereafter with the assay buffer. Inhibitor and enzyme solutions were preincubated together for 15 min at room temperature before the assay, to allow for the formation of the E − I complex. The inhibition constants were obtained by nonlinear least‐squares methods using PRISM 3 and the Cheng–Prusoff equation as reported earlier and represent the mean from at least three different determinations. All CA isoforms were recombinant proteins obtained in house, as reported earlier.

hCA II = target: T3, hCA II (Homo sapiens, UniProt P00918); assay: Stopped-flow CO2 hydrase assay; format: biochemical; details: mean from 3 assays, read-out: K i hCA II
T3 construct: made in house
Method: as §1

hCA VA = target: T4, hCA VA (Homo sapiens, UniProt P35218); assay: Stopped-flow CO2 hydrase assay; format: biochemical; details: mean from 3 assays, read-out: K i hCA VA
T4 construct: made in house
Method: as §1

hCA XII = target: T5, hCA XII (Homo sapiens, UniProt O43570); assay: Stopped-flow CO2 hydrase assay; format: biochemical; details: mean from 3 assays, read-out: K i hCA XII
T5 construct: made in house
Method: as §1

hCA VB = assay: Stopped-flow CO2 hydrase assay; format: biochemical, human; details: K i VA / K i VB
Method: as §1

hCA IX = target: T6, hCA IX (Homo sapiens, UniProt Q16790); format: biochemical; details: read-out: K i hCA IX
T6 construct: made in house
Method: as §1

hCA VII = target: T7, hCA VII (Homo sapiens, UniProt Q9Y2D0); assay: Stopped-flow CO2 hydrase assay (supplement table column); format: biochemical
T7 construct: made in house
Method: An Applied Photophysics stopped‐flow instrument was used to assay the CA‐catalyzed CO2 hydration activity. Phenol red (at a concentration of 0.2 mM) was used as an indicator, working at the absorbance maximum of 557 nm, with 20 mM Hepes (pH 7.4) as a buffer, and 20 mM Na2SO4 (to maintain constant ionic strength), following the initial rates of the CA‐catalyzed CO2 hydration reaction for a period of 10 − 100 s. The CO2 concentrations ranged from 1.7 to 17 mM for the determination of the kinetic parameters and inhibition constants. Enzyme concentrations ranged between 5 and 12 nM. For each inhibitor, at least six traces of the initial 5%−10% of the reaction were used to determine the initial velocity. The uncatalyzed rates were determined in the same manner and subtracted from the total observed rates. Stock solutions of the inhibitor (0.1 mM) were prepared in distilled−deionized water, and dilutions up to 0.01 nM were done thereafter with the assay buffer. Inhibitor and enzyme solutions were preincubated together for 15 min at room temperature before the assay, to allow for the formation of the E − I complex. The inhibition constants were obtained by nonlinear least‐squares methods using PRISM 3 and the Cheng–Prusoff equation as reported earlier and represent the mean from at least three different determinations. […]

[2] = target: T1, PL (pancreatic lipase) from porcine pancreas; assay: Pancreatic lipase inhibition, spectrophotometric p-nitrophenyl butyrate assay; details: IC50 (µM) ± SD, p-nitrophenyl butyrate substrate, 37°C
Method: The inhibition of PL (from porcine pancreas; see Supporting Information) was assessed using previously described spectrophotometric methods [15, 16, 30]. […] Thus, a lower value indicates higher inhibitory activity.
The reactions were incubated at 37°C for 10 min. Then, the substrate p‐nitrophenyl butyrate (3.2 mM in H2O/DMF 70:30, 10 μL) was pipetted, and the microplate was incubated at 37°C for 30 min under moderate shaking.

[3] = target: T1, PL (pancreatic lipase) from porcine pancreas; details: cited from earlier work

T7 sequence (Q9Y2D0 34-317): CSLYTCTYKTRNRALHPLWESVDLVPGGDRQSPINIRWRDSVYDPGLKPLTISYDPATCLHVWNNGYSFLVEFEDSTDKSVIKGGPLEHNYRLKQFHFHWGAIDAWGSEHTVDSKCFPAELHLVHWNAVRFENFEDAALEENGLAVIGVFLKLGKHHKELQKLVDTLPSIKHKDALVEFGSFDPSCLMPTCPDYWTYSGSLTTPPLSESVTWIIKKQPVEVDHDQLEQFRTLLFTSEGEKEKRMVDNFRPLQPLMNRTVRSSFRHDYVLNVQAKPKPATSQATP
T2 sequence (P00915 whole entry): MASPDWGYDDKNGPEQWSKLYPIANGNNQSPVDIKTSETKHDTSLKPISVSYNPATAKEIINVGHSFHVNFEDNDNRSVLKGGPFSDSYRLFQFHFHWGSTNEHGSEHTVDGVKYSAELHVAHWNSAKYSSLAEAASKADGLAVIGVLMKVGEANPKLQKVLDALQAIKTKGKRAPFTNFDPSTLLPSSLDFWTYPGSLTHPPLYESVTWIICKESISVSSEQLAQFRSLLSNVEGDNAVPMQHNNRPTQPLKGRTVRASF
T5 sequence (O43570 25-354): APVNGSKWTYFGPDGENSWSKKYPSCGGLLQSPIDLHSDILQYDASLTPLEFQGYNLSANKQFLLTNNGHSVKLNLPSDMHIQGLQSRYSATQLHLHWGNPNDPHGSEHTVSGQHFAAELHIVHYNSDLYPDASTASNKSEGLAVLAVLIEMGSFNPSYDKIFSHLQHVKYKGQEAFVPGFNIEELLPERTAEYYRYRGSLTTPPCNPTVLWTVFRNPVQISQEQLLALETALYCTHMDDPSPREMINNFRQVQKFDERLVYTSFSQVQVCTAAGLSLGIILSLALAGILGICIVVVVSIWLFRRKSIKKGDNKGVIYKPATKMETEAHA
T4 sequence (P35218 39-305): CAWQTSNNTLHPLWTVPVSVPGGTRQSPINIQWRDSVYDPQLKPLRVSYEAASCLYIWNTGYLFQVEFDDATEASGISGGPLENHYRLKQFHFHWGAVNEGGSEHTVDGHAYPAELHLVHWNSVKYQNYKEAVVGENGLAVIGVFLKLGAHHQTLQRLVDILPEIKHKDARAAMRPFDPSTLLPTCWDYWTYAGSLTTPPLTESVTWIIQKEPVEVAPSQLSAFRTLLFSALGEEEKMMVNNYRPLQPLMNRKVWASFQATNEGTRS

| Structure (SMILES) | Inhibition mode ([1]; Lineweaver-Burk plot) | Ki ([1]; from slope of L-B plot lines versus inhibitor concentration) [µM] | v max of the reaction ([1]; not affected by the competitive inhibitor) [mM/min] | Ki (hCA I) [µM] | Ki (hCA II) [µM] | Ki (hCA VA) [µM] | Ki (hCA XII) [µM] | Inhibition ratio hCA VA versus hCA VB (VB more potently inhibited) (hCA VB) [fold] | Ki (hCA IX) [µM] | Ki (hCA VII) [µM] | IC50 [2] | Inhibition mode [3] |
| --- | --- | --- | --- | --- | --- | --- | --- | --- | --- | --- | --- | --- |
| O=C(/C=C/c1ccc(O)c2c1[C@H](C(=O)O)[C@@H](c1ccc(O)c(O)c1)O2)O[C@H](Cc1ccc(O)c(O)c1)C(=O)O [LTS0059529, Lithospermic acid] | competitively; also recorded: Competitive | 33.1 ± 1.6 | 0.091 ± 0.002 | > 100 | > 100 | 0.69 ± 0.01 | 0.0048 ± 0.003 | 1.15 | 0.31 ± 0.01 | 0.6 ± 0.02 | 5.4 µM and 5.45 µM | – |
| CCCCCCCCCCC[C@@H](C[C@@H]1OC(=O)[C@H]1CCCCCC)OC(=O)[C@H](CC(C)C)NC=O [ORL, Orlistat] | – | – | – | – | – | – | – | – | – | – | – | Competitive |
